The text below walks through data of patent US9572813B2, “Antiviral agent” (SHIONOGI & CO., LTD., priority 2001, dated 2017).

Each structure is given as a SMILES string. Where a name gives a salt, the structure may show the parent alone.

What is called melting point is the temperature, or range, at which the solid turns liquid. Take `CN1CC(C(=O)c2coc(Cc3ccc(F)cc3)c2)=C(O)C1=O`: the melting point was 158 to 160 °C. The figure for `COc1ccccc1Cc1ccc(C(=O)C2=C(O)C(=O)N(C(C)C)C2)o1` is 123 to 124 °C; for `CC(C)N1CC(C(=O)c2ccc(Cc3cccc4ccccc34)o2)=C(O)C1=O` it is 165 to 166.5 °C; for `CC(C)Oc1cccc(Cc2ccc(C(=O)C3=C(O)C(=O)N(C(C)C)C3)o2)c1` it is 98 to 99 °C. The figure for `COc1cc(F)ccc1Cc1ccc(C(=O)C2=C(O)C(=O)N(C(C)C)C2)o1` is 112 to 113 °C; for `CC(C)Oc1cc(F)ccc1Cc1ccc(C(=O)C2=C(O)C(=O)N(C(C)C)C2)o1` it is 98 to 100 °C; for `CC(C)N1CC(C(=O)c2ccc(Cc3ccc(F)cc3C(N)=O)o2)=C(O)C1=O` it is 215 to 218 °C.

The compound `CCN1CC(C(=O)c2oc(S(C)(=O)=O)cc2Cc2ccc(F)cc2)=C(O)C1=O` came in with a melting point of 154 to 157 °C.

`COCCN1CC(C(=O)c2ccc(Cc3ccc(F)cc3)o2)=C(O)C1=O` showed a melting point of 105 to 106 °C. Turning to `CN1CC(C(=O)c2oc(C3CCS(=O)(=O)CC3)cc2Cc2ccc(F)cc2)=C(O)C1=O`, the melting point is 200 to 203 °C. The figure for `CN1CC(C(=O)c2oc(C(=O)N3CCOCC3)cc2Cc2ccc(F)cc2)=C(O)C1=O` is 209 to 211 °C (dec.); for `O=C(C1=C(O)C(=O)N(C2CCCC2)C1)c1ccc(Cc2ccc(F)cc2)o1` it is 157 to 159 °C; for `CC(O)CN1CC(C(=O)c2ccc(Cc3ccc(F)cc3)o2)=C(O)C1=O` (centres unmarked) it is 172 °C.

`O=C1NCC(C(=O)c2ccc(Cc3ccc(F)cc3)o2)=C1O` yielded a melting point of 178 to 179 °C. The figure for `O=C(C1=C(O)C(=O)N(CCN2CCCCC2)C1)c1ccc(Cc2ccc(F)cc2)o1` is 228 to 232 °C (dec.); for `CN1CC(C(=O)c2ncc(Cc3ccc(F)cc3)s2)=C(O)C1=O` it is 230 to 231 °C; for `CC(C)N1CC(C(=O)c2occc2Cc2ccc(F)cc2)=C(O)C1=O` it is 197 to 199 °C. The figure for `Cc1oc(C(=O)C2=C(O)C(=O)N(C)C2)c(Cc2ccc(F)cc2)c1C` is 202 to 204 °C; for `CCN1CC(C(=O)c2oc(C(C)(C)C)cc2Cc2ccc(F)cc2)=C(O)C1=O` it is 141 to 143 °C; for `CC(C)N1CC(C(=O)c2oc(C(C)(C)C)cc2Cc2ccc(F)cc2)=C(O)C1=O` it is 146 to 147 °C. The figure for `CN1CC(C(=O)c2sccc2Cc2ccc(F)cc2)=C(O)C1=O` is 181 to 183 °C; for `CC(C)N1CC(C(=O)c2c[nH]c(Cc3ccc(F)cc3)n2)=C(O)C1=O` it is 220 °C. Turning to `CN1CC(C(=O)c2cccn2Cc2ccc(F)cc2)=C(O)C1=O`, the melting point fell in the range of 150 to 151 °C. For the compound `CC(C)N1CC(c2ncnc(OCc3ccc(F)cc3)n2)=C(O)C1=O`, the melting point lay within 105 to 106 °C. The figure for `CC(C)N1CC(c2ncc(CCc3ccc(F)cc3)s2)=C(O)C1=O` is 208 to 210 °C. The figure for `CC(C)N1CC(c2cc(OCc3ccccc3)ncn2)=C(O)C1=O` is 177 to 178 °C. The figure for `CC(C)N1CC(c2cc(CCc3ccc(F)cc3)ncn2)=C(O)C1=O` is 225 to 228 °C; for `COc1ccc(CN2CC(c3ccc(Cc4ccc(F)cc4)cn3)=C(O)C2=O)cc1` it is 164 to 166 °C; for `CN1CC(c2cc(CCc3ccc(F)cc3)ccn2)=C(O)C1=O` it is 167 to 168 °C.

The compound `CC(C)N1CC(c2cc(CCc3ccc(F)cc3)ccn2)=C(O)C1=O` yielded a melting point of 167 to 168 °C. The figure for `CN1CC(c2ccc(OCc3ccc(F)cc3)cn2)=C(O)C1=O` is 210 to 211 °C; for `CC(C)N1CC(c2ccc([S+]([O-])c3ccc(F)cc3)cn2)=C(O)C1=O` (centres unmarked) it is 205 to 207 °C. The figure for `CC(C)N1CC(c2ncc(Cc3ccc(F)cc3)cn2)=C(O)C1=O` is 155 to 157 °C. The figure for `CC(C)N1CC(c2ncc(Oc3ccc(F)cc3)cn2)=C(O)C1=O` is 165 to 166 °C. `CC(C)N1CC(c2cc(CCc3ccccc3)ncn2)=C(O)C1=O` displayed a melting point of 229 to 231 °C. The figure for `O=C1C(O)=C(c2cc(CCc3ccccc3)ncn2)CN1Cc1ccccc1` is 222 to 223 °C; for `CC(C)(C)N1CC(c2cc(CCc3ccccc3)ncn2)=C(O)C1=O` it is 199 to 200 °C. The figure for `CC(C)N1CC(c2nccc(OCc3ccccc3)n2)=C(O)C1=O` is 155 to 157 °C; for `CN1CC(c2nccc(OCc3ccc(F)cc3)n2)=C(O)C1=O` it is 227 to 230 °C. The figure for `CC(C)N1CC(c2nccc(OCc3ccc(F)cc3)n2)=C(O)C1=O` is 148 to 149 °C; for `CN1CC(c2ncc(CCc3ccc(F)cc3)cn2)=C(O)C1=O` it is 158 to 160 °C. As to `CC(C)N1CC(c2cc(CCc3ccccc3)cnn2)=C(O)C1=O`, the melting point lay in the range of 182 to 184 °C.

With `CN1CC(c2cnc(Oc3ccc(F)cc3)cn2)=C(O)C1=O`, the melting point fell in the range of 237 to 238 °C.

The compound `Cc1nc(-c2oc3cccc(OCc4ccc(F)cc4)c3c(=O)c2O)n[nH]1` displayed a melting point of 289 to 292 °C. The figure for `O=c1c(O)c(-c2ncc(Oc3ccccc3)cn2)oc2ccccc12` is 212 °C; for `CN(C)C(=O)c1cc(OCc2ccc(F)cc2)c2c(=O)c(O)c(-c3ncnn3C)oc2c1` it is 227 to 229 °C.

Turning to `COC(=O)c1cc(OCc2ccc(F)cc2)c2c(=O)c(O)c(-c3ncnn3C)oc2c1`, the melting point was in the range of 253 to 255 °C. The figure for `Cn1ncnc1-c1oc2cc(C(=O)O)cc(OCc3ccc(F)cc3)c2c(=O)c1O` is 280 to 282 °C; for `Cn1ncnc1-c1oc2c(Br)ccc(OCc3ccc(F)cc3)c2c(=O)c1O` it is 220 to 223 °C.

`Cn1ncnc1-c1oc2cc(C(N)=O)cc(OCc3ccc(F)cc3)c2c(=O)c1O` had a melting point of 257 to 258 °C. The figure for `COCNC(=O)c1cc(OCc2ccc(F)cc2)c2c(=O)c(O)c(-c3ncnn3C)oc2c1` is 220 to 221 °C; for `CN(C)C(=O)c1ccc(OCc2ccc(F)cc2)c2c(=O)c(O)c(-c3ncnn3C)oc12` it is 246 to 247 °C. The figure for `Cn1ncnc1-c1oc2cccc(OCCc3ccc(F)cc3)c2c(=O)c1O` is 215 to 217 °C; for `COCCNC(=O)c1cc(=O)c(O)c(C(=O)c2ccc(Cc3ccc(F)cc3)o2)o1` it is 177 to 179 °C. The figure for `COCn1ccc(C(=O)c2ccc(Cc3ccc(F)cc3)o2)c(O)c1=O` is 128 to 130 °C; for `CN1CC(C(=O)c2ncoc2Cc2ccc(F)cc2)=C(O)C1=O` (as salt: salt) it is 257 °C.
